Assay results as given in patent US8338565B2, “Macrocyclic compounds for inhibition of tumor necrosis factor alpha” (Ensemble Therapeutics Corporation, priority 2008, dated 2012).
Numbered stars: 1 amine (or outer) side, 2 acyl side, 3 side chain; on linkers, the order of the positions; unused ones are H or OH. Bridge positions count the residues as written; N and C are the ends. Square brackets hold non-standard residues; d marks the D form. Peptide text beside a SMILES is read from it. * marks the point of attachment. Tartaroyl(2R,3R-(OAc)2) = CC(=O)O[C@@H](C(=O)[*:1])[C@@H](OC(C)=O)C(=O)[*:2]; Phe(4-COOH) = N[C@@H](Cc1ccc(C(=O)O)cc1)C(=O)O; Bip = N[C@@H](Cc1ccc(-c2ccccc2)cc1)C(=O)O; dPhe(4-NH2) = Nc1ccc(C[C@@H](N)C(=O)O)cc1; Phe(4-NH2) = Nc1ccc(C[C@H](N)C(=O)O)cc1; d(hPhe) = N[C@H](CCc1ccccc1)C(=O)O; d2Thi = N[C@H](Cc1cccs1)C(=O)O; Suc = O=C(CCC(=O)[*:2])[*:1]; 3Abz = Nc1cccc(C(=O)O)c1; X1 = O=C(O)C1CCN(*)C1; GABA = NCCCC(=O)O

Target: T1, TNFα / TNFα receptor (TNFα R1/Fc) (Homo sapiens, UniProt P01375)
T1 construct: purchased R&D Systems
T1 sequence (P01375 77-233 limits assumed, species assumed): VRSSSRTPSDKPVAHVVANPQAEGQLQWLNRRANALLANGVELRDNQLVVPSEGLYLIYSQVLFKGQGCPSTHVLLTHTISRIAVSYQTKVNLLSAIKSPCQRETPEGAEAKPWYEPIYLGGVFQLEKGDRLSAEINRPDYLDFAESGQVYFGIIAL
Test: Inhibition of binding of TNFα to the TNFα receptor (plate ELISA competition)
Settings: Activity (IC50, inhibition of TNFα binding to TNFα R1/Fc), Table 2
In short: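 Compound dilutions were preincubated 30 min at RT with 8.33 nM TNFα R1/Fc in PBST with 2% DMSO, then added to wells coated with 15 nM TNFα for 30 min. Bound receptor was detected with HRP anti-human Fc and TMB, read as A450.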

Row | Compound | IC50 [µM]
1 | O=C1COc2ccc(cc2)C[C@@H](C(=O)NCCO)NC(=O)[C@H](Cc2ccccc2)NC(=O)[C@H](Cc2ccc(-c3ccccc3)cc2)NC(=O)[C@H](Cc2cccs2)N1 [Compound 338] | 10 to 30
2 | O=C1COc2ccc(cc2)CC(C(=O)O)NC(=O)C(Cc2ccccc2)NC(=O)C(Cc2ccc([N+](=O)[O-])cc2)NC(=O)C(Cc2cccs2)N1 (stereo not drawn) [Compound 358] | > 100

Same assay, conditions: Table 2; read-out: Activity (IC50, inhibition of TNFα binding to TNFα R1/Fc)

Row | Compound | IC50 [µM]
3 | O=C(OCc1ccccc1)c1ccc(-c2ccc(C[C@@H]3NC(=O)[C@@H](Cc4cccs4)NC(=O)[C@H](O)[C@@H](O)C(=O)Nc4ccc(cc4)C[C@@H](C(=O)O)NC(=O)[C@@H](Cc4ccccc4)NC3=O)cc2)cc1 [Compound 335] | 10 to 30
4 | O=C(Nc1ccc(-c2ccc(C[C@@H]3NC(=O)[C@@H](Cc4cccs4)NC(=O)[C@H](O)[C@@H](O)C(=O)Nc4ccc(cc4)C[C@@H](C(=O)O)NC(=O)[C@@H](Cc4ccccc4)NC3=O)cc2)cc1)OCc1ccccc1 [Compound 336] | 10 to 30
5 | O=C1N[C@H](CCc2ccccc2)C(=O)N[C@@H](Cc2ccc(-c3ccccc3)cc2)C(=O)N[C@H](Cc2ccccc2)C(=O)N[C@H](C(=O)O)Cc2ccc1cc2 [Compound 337] ([d(hPhe)][Bip][dF][Phe(4-COOH)]-OH; lactam N-4) | > 100
6 | O=C(O)CN(Cc1ccccc1)C(=O)[C@@H]1Cc2ccc(cc2)OCC(=O)N[C@@H](Cc2cccs2)C(=O)N[C@@H](Cc2ccc(-c3ccccc3)cc2)C(=O)N[C@@H](Cc2ccccc2)C(=O)N1 [Compound 340] | < 10
7 | O=C(O)C[C@H](NC(=O)[C@@H]1Cc2ccc(cc2)OCC(=O)N[C@@H](Cc2cccs2)C(=O)N[C@@H](Cc2ccc(-c3ccccc3)cc2)C(=O)N[C@@H](Cc2ccccc2)C(=O)N1)C(=O)O [Compound 345] | 30 to 100
8 | CC(C)(C)Oc1ccc(C[C@@H]2NC(=O)[C@H](Cc3ccc(-c4ccccc4)cc3)NC(=O)[C@H](Cc3cccs3)NC(=O)COc3ccc(cc3)C[C@@H](C(=O)O)NC2=O)cc1 [Compound 347] | 30 to 100
9 | CC(C)(C)OC(=O)CC[C@@H]1NC(=O)[C@@H](Cc2ccc(-c3ccccc3)cc2)NC(=O)[C@H](Cc2cccs2)NC(=O)COc2ccc(cc2)C[C@@H](C(=O)O)NC1=O [Compound 349] | 10 to 30
10 | COC(=O)[C@@H](CC(=O)O)NC(=O)[C@@H]1Cc2ccc(cc2)NC(=O)CCC(=O)N[C@H](CCc2ccccc2)C(=O)N[C@@H](Cc2ccc(-c3ccccc3)cc2)C(=O)N[C@H](Cc2ccccc2)C(=O)N1 [Compound 351] ([d(hPhe)][Bip][dF][Phe(4-NH2)][dD]-OMe; linker N-4 via Suc) | 10 to 30
11 | O=C1CCC(=O)N[C@H](CCc2ccccc2)C(=O)N[C@@H](Cc2ccc(-c3ccccc3)cc2)C(=O)N[C@H](Cc2ccccc2)C(=O)N[C@H](C(=O)Nc2cccc(C(=O)O)c2)Cc2ccc(cc2)N1 [Compound 352] ([d(hPhe)][Bip][dF][Phe(4-NH2)][3Abz]-OH; linker N-4 via Suc) | > 100
12 | O=C1CCC(=O)N[C@H](CCc2ccccc2)C(=O)N[C@@H](Cc2ccc(-c3ccccc3)cc2)C(=O)N[C@H](Cc2ccccc2)C(=O)N[C@H](C(=O)N2CCC(C(=O)O)C2)Cc2ccc(cc2)N1 (stereo partly drawn) [Compound 353] ([d(hPhe)][Bip][dF][Phe(4-NH2)]-X1; linker N-4 via Suc) | > 100
13 | O=C(O)CCCNC(=O)[C@@H]1Cc2ccc(cc2)NC(=O)CCC(=O)N[C@H](CCc2ccccc2)C(=O)N[C@@H](Cc2ccc(-c3ccccc3)cc2)C(=O)N[C@H](Cc2ccccc2)C(=O)N1 [Compound 354] ([d(hPhe)][Bip][dF][Phe(4-NH2)][GABA]-OH; linker N-4 via Suc) | > 100
14 | O=C1COc2ccc(cc2)C[C@@H](C(=O)O)NC(=O)[C@H](Cc2ccccc2)NC(=O)[C@@H](Cc2ccc(F)cc2)NC(=O)[C@H](Cc2cccs2)N1 [Compound 355] | > 100
15 | O=C1COc2ccc(cc2)C[C@@H](C(=O)O)NC(=O)[C@H](Cc2ccccc2)NC(=O)[C@@H](Cc2cccc(Cl)c2)NC(=O)[C@H](Cc2cccs2)N1 [Compound 356] | > 100
16 | O=C1COc2ccc(cc2)C[C@@H](C(=O)O)NC(=O)[C@H](Cc2ccccc2)NC(=O)[C@@H](Cc2cccc3ccccc23)NC(=O)[C@H](Cc2cccs2)N1 [Compound 357] | > 100
17 | O=C1COc2ccc(cc2)C[C@@H](C(=O)O)NC(=O)[C@H](Cc2ccccc2)NC(=O)[C@H](Cc2ccc(Br)cc2)NC(=O)[C@H](Cc2cccs2)N1 [Compound 359] | > 100
18 | NCCCC[C@H](NC(=O)[C@@H]1Cc2ccc(cc2)NC(=O)[C@H](O)[C@@H](O)C(=O)N[C@H](Cc2cccs2)C(=O)N[C@@H](Cc2ccc(-c3ccccc3)cc2)C(=O)N[C@H](Cc2ccccc2)C(=O)N1)C(=O)O [Compound 360] | > 100
19 | O=C1COc2ccc(cc2)C[C@@H](C(=O)O)NC(=O)[C@H](Cc2ccccc2)NC(=O)[C@H](Cc2ccc(-c3ccc(C(=O)O)cc3)cc2)NC(=O)[C@H](Cc2cccs2)N1 [Compound 361] | > 100
20 | O=C1COc2ccc(cc2)C[C@@H](C(=O)O)NC(=O)[C@H](Cc2ccccc2)NC(=O)[C@H](Cc2ccc(-c3ccc(Cl)cc3)cc2)NC(=O)[C@H](Cc2cccs2)N1 [Compound 365] | 30 to 100
21 | O=C1COc2ccc(cc2)C[C@@H](C(=O)O)NC(=O)[C@H](Cc2ccccc2)NC(=O)[C@H](Cc2ccc(Cl)cc2Cl)NC(=O)[C@H](Cc2cccs2)N1 [Compound 367] | > 100

Row | Compound | IC50 [µM]
22 | O=C1COc2ccc(cc2)C[C@@H](C(=O)O)NC(=O)[C@H](c2ccccc2)NC(=O)[C@@H](Cc2ccc(-c3ccccc3)cc2)NC(=O)[C@H](Cc2cccs2)N1 [Compound 368] | > 100
23 | CN(C)C(=O)[C@@H]1Cc2ccc(cc2)NC(=O)CCC(=O)N[C@H](CCc2ccccc2)C(=O)N[C@@H](Cc2ccc(-c3ccccc3)cc2)C(=O)N[C@H](Cc2ccccc2)C(=O)N1 [Compound 370] ([d(hPhe)][Bip][dF][Phe(4-NH2)]-NMe2; linker N-4 via Suc) | > 100
24 | N[C@H]1CC(=O)Nc2ccc(cc2)C[C@@H](C(=O)O)NC(=O)[C@@H](Cc2ccccc2)NC(=O)[C@H](Cc2ccc(-c3ccccc3)cc2)NC(=O)[C@@H](Cc2cccs2)NC1=O [Compound 371] (H-D[d2Thi][Bip][dF][Phe(4-NH2)]-OH; lactam 1-5) | > 100
25 | N[C@@H]1CC(=O)Nc2ccc(cc2)C[C@@H](C(=O)O)NC(=O)[C@@H](Cc2ccccc2)NC(=O)[C@H](Cc2ccc(-c3ccccc3)cc2)NC(=O)[C@@H](Cc2cccs2)NC1=O [Compound 372] (H-[dD][d2Thi][Bip][dF][Phe(4-NH2)]-OH; lactam 1-5) | > 100
26 | N[C@H]1CC(=O)N[C@H](Cc2cccs2)C(=O)N[C@@H](Cc2ccc(-c3ccccc3)cc2)C(=O)N[C@H](Cc2ccccc2)C(=O)N[C@H](C(=O)O)Cc2ccc(cc2)NC1=O [Compound 373] | > 100
27 | N[C@@H]1CC(=O)N[C@H](Cc2cccs2)C(=O)N[C@@H](Cc2ccc(-c3ccccc3)cc2)C(=O)N[C@H](Cc2ccccc2)C(=O)N[C@H](C(=O)O)Cc2ccc(cc2)NC1=O [Compound 374] | > 100
28 | CC(=O)N[C@H]1CC(=O)Nc2ccc(cc2)C[C@@H](C(=O)O)NC(=O)[C@@H](Cc2ccccc2)NC(=O)[C@H](Cc2ccc(-c3ccccc3)cc2)NC(=O)[C@@H](Cc2cccs2)NC1=O [Compound 375] (Ac-D[d2Thi][Bip][dF][Phe(4-NH2)]-OH; lactam 1-5) | > 100
29 | CC(=O)N[C@@H]1CC(=O)Nc2ccc(cc2)C[C@@H](C(=O)O)NC(=O)[C@@H](Cc2ccccc2)NC(=O)[C@H](Cc2ccc(-c3ccccc3)cc2)NC(=O)[C@@H](Cc2cccs2)NC1=O [Compound 376] (Ac-[dD][d2Thi][Bip][dF][Phe(4-NH2)]-OH; lactam 1-5) | 10 to 30
30 | CC(=O)N[C@H]1CC(=O)N[C@H](Cc2cccs2)C(=O)N[C@@H](Cc2ccc(-c3ccccc3)cc2)C(=O)N[C@H](Cc2ccccc2)C(=O)N[C@H](C(=O)O)Cc2ccc(cc2)NC1=O [Compound 377] | > 100
31 | CC(=O)N[C@@H]1CC(=O)N[C@H](Cc2cccs2)C(=O)N[C@@H](Cc2ccc(-c3ccccc3)cc2)C(=O)N[C@H](Cc2ccccc2)C(=O)N[C@H](C(=O)O)Cc2ccc(cc2)NC1=O [Compound 378] | 10 to 30
32 | O=C(O)CNC(=O)[C@@H]1Cc2ccc(cc2)OCC(=O)N[C@@H](Cc2cccs2)C(=O)N[C@H](Cc2ccc(-c3ccccc3)cc2)C(=O)N[C@@H](Cc2ccccc2)C(=O)N1 [Compound 383] | < 10
33 | O=C1COc2ccc(cc2)C[C@@H](C(=O)N[C@@H](Cc2ccc(O)cc2)C(=O)O)NC(=O)[C@H](Cc2ccccc2)NC(=O)[C@@H](Cc2ccc(-c3ccccc3)cc2)NC(=O)[C@H](Cc2cccs2)N1 [Compound 387] | > 100
34 | CC(C)(C)OC(=O)C[C@H](NC(=O)[C@@H]1Cc2ccc(cc2)OCC(=O)N[C@@H](Cc2cccs2)C(=O)N[C@H](Cc2ccc(-c3ccccc3)cc2)C(=O)N[C@@H](Cc2ccccc2)C(=O)N1)C(=O)O [Compound 389] | > 100
35 | O=C(O)CN(Cc1ccccc1)C(=O)[C@@H]1Cc2ccc(cc2)OCC(=O)N[C@@H](Cc2cccs2)C(=O)N[C@H](Cc2ccc(-c3ccccc3)cc2)C(=O)N[C@@H](Cc2ccccc2)C(=O)N1 [Compound 392] | 10 to 30
36 | CC(=O)O[C@H]1C(=O)Nc2ccc(cc2)C[C@H](C(=O)N[C@@H](Cc2ccccc2)C(=O)O)NC(=O)[C@@H](Cc2ccccc2)NC(=O)[C@H](Cc2ccc(-c3ccccc3)cc2)NC(=O)[C@@H](Cc2cccs2)NC(=O)[C@@H]1OC(C)=O [Compound 394] ([d2Thi][Bip][dF][dPhe(4-NH2)]F-OH; linker N-4 via Tartaroyl(2R,3R-(OAc)2)) | < 10
37 | O=C1COc2ccc(cc2)C[C@@H](C(=O)O)NC(=O)[C@H](Cc2ccccc2)NC(=O)[C@@H](Cc2ccc(C(F)(F)F)cc2)NC(=O)[C@H](Cc2cccs2)N1 [Compound 397] | > 100
38 | O=C1COc2ccc(cc2)C[C@@H](C(=O)O)NC(=O)[C@H](Cc2ccccc2)NC(=O)[C@H](Cc2ccc(F)cc2)NC(=O)[C@H](Cc2cccs2)N1 [Compound 398] | < 10
39 | O=C1COc2ccc(cc2)C[C@@H](C(=O)O)NC(=O)[C@H](Cc2ccccc2)NC(=O)[C@@H](Cc2ccc(Br)cc2)NC(=O)[C@H](Cc2cccs2)N1 [Compound 399] | > 100
